Some test systems named below: EKVX NSCLC; HCT-15 colon; HOP-62 NSCLC; M14 melanoma; PC-3 prostate; SF-295 CNS; SK-MEL-28 melanoma; SR leukemia; U251 CNS; UACC-62 melanoma.
Holding throughout (experiment): growth of human tumour cells (NCI), 48 h

SMILES strings stand for the structures. “And” between values parts separate entries of the source, which are not always exact repeats. Equal entries are not always repeated.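 Five compound concentrations were applied to cells in 96-well plates for 48 hours; endpoints were derived by simple linear interpolation of the resulting dose-response curve. GI50 is the concentration that inhibits growth by half. TGI: concentration producing complete growth inhibition.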 Some results are limits rather than exact numbers.

As for `Cn1cc(-c2ccc(-c3ccc(C4=NC5(CC5)C(=O)N4C[C@@H]4CCN(C(=O)C5CC5)C4)cc3)cc2)cn1`, the GI50 was 12.9 µM in the test on EKVX NSCLC; 2.71 µM in the test with HCT-15 colon; 25.2 µM in the test with HOP-62 NSCLC; 20.2 µM with M14 melanoma; 22.8 µM in the test with PC-3 prostate; 10.8 µM in the test with SF-295 CNS. Also, the GI50 is 20.3 µM in the test with SK-MEL-28 melanoma, 1.68 µM with SR leukemia, 10.5 µM in the test on U251 CNS and 10.2 µM in the test on UACC-62 melanoma. Also, the TGI in the test on EKVX NSCLC is 55.8 µM; in the test with HCT-15 colon, 43 µM; in the test with HOP-62 NSCLC it was over 100 µM; with M14 melanoma, over 100 µM; in the test on PC-3 prostate, over 100 µM; with SF-295 CNS, 29.2 µM. Also, the TGI with SK-MEL-28 melanoma was 79 µM; in the test with SR leukemia, 95.3 µM; in the test on U251 CNS, 29 µM; in the test on UACC-62 melanoma, 34.5 µM.
For the compound `O=c1c(-c2ccccc2)coc2cc(OC/C(=N/O)c3ccccc3)ccc12`, the GI50 is 13.4 µM in the test on EKVX NSCLC; 16.2 µM with HCT-15 colon; 18.9 µM in the test with HOP-62 NSCLC; 14.4 µM with M14 melanoma; 17.4 µM in the test on PC-3 prostate; 29.5 µM with SF-295 CNS. In addition, the values for the GI50 in the test on SK-MEL-28 melanoma, in the test with U251 CNS and in the test on UACC-62 melanoma were 28.8 µM, 21.4 µM and 15.2 µM, respectively. For the same compound, the TGI turned out to be 48.5 µM with EKVX NSCLC; 39.6 µM with HCT-15 colon; 51.3 µM with HOP-62 NSCLC; 39.7 µM in the test on M14 melanoma; 46 µM in the test with PC-3 prostate; 74.9 µM in the test on SF-295 CNS. Further, the TGI was over 100 µM in the test on SK-MEL-28 melanoma, 56.1 µM in the test with U251 CNS and 31.4 µM in the test on UACC-62 melanoma.
Regarding `CC12CCC(Br)C(C)(C)C1CC=C1C(=O)OCC1O2` (stereo not given), the TGI in the test with EKVX NSCLC was 47 µM; in the test with HCT-15 colon, 39 µM; in the test with M14 melanoma, over 51.9 µM; in the test with PC-3 prostate, 24.2 µM; with SF-295 CNS it was 37.6 µM; in the test on SK-MEL-28 melanoma, 28.6 µM. Further, the TGI was determined as 31.2 µM in the test on SR leukemia, 23.2 µM in the test with U251 CNS and 25.7 µM in the test on UACC-62 melanoma.
`C[N+]1=C(/C=C\C=C\c2ccccc2)C(C)(C)c2ccccc21`: the GI50 in the test with EKVX NSCLC is 2.42 µM; in the test with HCT-15 colon it was 2.27 µM; in the test with HOP-62 NSCLC, 4.1 µM; with M14 melanoma, 2.14 µM; in the test on PC-3 prostate, 3.54 µM; in the test with SF-295 CNS it was 10.8 µM. Further, the GI50 was 1.53 µM with SK-MEL-28 melanoma, 0.925 µM in the test with SR leukemia, 1.59 µM with U251 CNS and 1.65 µM with UACC-62 melanoma. Besides, the TGI in the test on EKVX NSCLC is 14.4 µM; in the test with HCT-15 colon, 11.8 µM; in the test on HOP-62 NSCLC it was 15.1 µM; with M14 melanoma, 7.71 µM; with PC-3 prostate, 14.9 µM; in the test on SF-295 CNS, 24.6 µM. The TGI is 3.46 µM in the test on SK-MEL-28 melanoma, 4.31 µM with SR leukemia, 4.18 µM with U251 CNS and 4.98 µM with UACC-62 melanoma.
With `COc1ccc2c(c1)C(=O)c1c-2n(CCCI)c(=O)c2cc([N+](=O)[O-])ccc12`, the TGI in the test on EKVX NSCLC is 11.8 µM and > 100 µM; with HCT-15 colon, 50 µM and 28 µM; in the test on HOP-62 NSCLC, 7.77 µM; in the test with M14 melanoma it was 0.59 µM and 1.35 µM; with PC-3 prostate, 30.4 µM and > 100 µM; in the test on SF-295 CNS, 50 µM and 66.8 µM. In addition, the TGI with SK-MEL-28 melanoma is 50 µM and > 100 µM; in the test on SR leukemia it was 0.0888 µM and 0.143 µM; in the test with U251 CNS, 5.64 µM and 1.27 µM; with UACC-62 melanoma, 0.851 µM and 1.35 µM. The GI50 is 1.05 µM and 1.13 µM in the test with HCT-15 colon; 0.143 µM with HOP-62 NSCLC; 0.133 µM and 0.057 µM in the test on M14 melanoma; 0.279 µM and 1.42 µM with PC-3 prostate; 0.122 µM and 0.1 µM in the test on SF-295 CNS; 0.861 µM and 3.07 µM in the test with SK-MEL-28 melanoma. For the same compound, the GI50 was 0.005 µM in the test with SR leukemia; 0.138 µM and 0.047 µM with U251 CNS; 0.109 µM and 0.149 µM in the test with UACC-62 melanoma.
Consider `CCN1CCN(CC(=O)N2c3cccc4cccc(c34)N(C(=O)CN3CCN(CC)CC3)C2c2cn(-c3ccccc3)nc2-c2cccc([N+](=O)[O-])c2)CC1`, for which the GI50 was 1.79 µM in the test with EKVX NSCLC; 1.46 µM in the test on HCT-15 colon; 1.63 µM with HOP-62 NSCLC; 1.69 µM in the test with M14 melanoma; 1.48 µM in the test on PC-3 prostate; 1.84 µM with SF-295 CNS. Besides, the GI50 with SK-MEL-28 melanoma is 1.75 µM; in the test with SR leukemia, 0.267 µM; in the test with U251 CNS, 1.53 µM; in the test on UACC-62 melanoma it was 1.73 µM. For the same compound, the TGI with EKVX NSCLC is 3.79 µM; in the test with HCT-15 colon, 2.98 µM; in the test on HOP-62 NSCLC, 3.28 µM; in the test with M14 melanoma it was 3.46 µM; in the test on PC-3 prostate, 3.14 µM; in the test with SF-295 CNS it was 3.44 µM. In addition, the TGI in the test with SK-MEL-28 melanoma is 3.2 µM; with SR leukemia, 0.8 µM; with U251 CNS it was 3.21 µM; in the test with UACC-62 melanoma it was 3.2 µM.
Regarding `NCCCNCCCCNC(=O)C(O)NC(=O)CCCCCCN=C(N)N` (stereo not given), the GI50 in the test with EKVX NSCLC is 4980 µM; with HCT-15 colon, over 2640 µM; in the test on HOP-62 NSCLC, 3470 µM; with M14 melanoma it was 2450 µM; with PC-3 prostate it was 1590 µM; in the test on SF-295 CNS it was 1400 µM. Also, the GI50 with SK-MEL-28 melanoma is over 3670 µM; in the test with SR leukemia, 530 µM; in the test with U251 CNS, 2080 µM; with UACC-62 melanoma, over 2860 µM. The TGI is 742 µM and > 5000 µM with EKVX NSCLC; 750 µM and > 5000 µM in the test on HCT-15 colon; 750 µM and > 5000 µM in the test with HOP-62 NSCLC; over 3810 µM with M14 melanoma; over 5000 µM in the test with PC-3 prostate; 608 µM and > 4710 µM in the test with SF-295 CNS. Besides, the TGI in the test with SK-MEL-28 melanoma is over 5000 µM; in the test on SR leukemia, 750 µM and > 4240 µM; with U251 CNS it was 636 µM and > 4540 µM; in the test on UACC-62 melanoma it was 750 µM and > 5000 µM.
In the case of `COC(=O)/C=C/c1cc2c(cc1-c1c(C(=O)O)cc(OC)c(OC)c1OC)OCO2`, the TGI in the test on HCT-15 colon, with HOP-62 NSCLC, with M14 melanoma, in the test on PC-3 prostate, in the test on SF-295 CNS and with SK-MEL-28 melanoma was over 10 µM throughout. Moreover, the TGI with SR leukemia, in the test on U251 CNS and with UACC-62 melanoma was over 10 µM throughout.

The record behind these values is PubChem BioAssay (NCI).
